The target of data set [1] is T1, Serine/threonine-protein kinase LATS1 (Homo sapiens) (UniProt O95835).
T1 sequence (whole entry): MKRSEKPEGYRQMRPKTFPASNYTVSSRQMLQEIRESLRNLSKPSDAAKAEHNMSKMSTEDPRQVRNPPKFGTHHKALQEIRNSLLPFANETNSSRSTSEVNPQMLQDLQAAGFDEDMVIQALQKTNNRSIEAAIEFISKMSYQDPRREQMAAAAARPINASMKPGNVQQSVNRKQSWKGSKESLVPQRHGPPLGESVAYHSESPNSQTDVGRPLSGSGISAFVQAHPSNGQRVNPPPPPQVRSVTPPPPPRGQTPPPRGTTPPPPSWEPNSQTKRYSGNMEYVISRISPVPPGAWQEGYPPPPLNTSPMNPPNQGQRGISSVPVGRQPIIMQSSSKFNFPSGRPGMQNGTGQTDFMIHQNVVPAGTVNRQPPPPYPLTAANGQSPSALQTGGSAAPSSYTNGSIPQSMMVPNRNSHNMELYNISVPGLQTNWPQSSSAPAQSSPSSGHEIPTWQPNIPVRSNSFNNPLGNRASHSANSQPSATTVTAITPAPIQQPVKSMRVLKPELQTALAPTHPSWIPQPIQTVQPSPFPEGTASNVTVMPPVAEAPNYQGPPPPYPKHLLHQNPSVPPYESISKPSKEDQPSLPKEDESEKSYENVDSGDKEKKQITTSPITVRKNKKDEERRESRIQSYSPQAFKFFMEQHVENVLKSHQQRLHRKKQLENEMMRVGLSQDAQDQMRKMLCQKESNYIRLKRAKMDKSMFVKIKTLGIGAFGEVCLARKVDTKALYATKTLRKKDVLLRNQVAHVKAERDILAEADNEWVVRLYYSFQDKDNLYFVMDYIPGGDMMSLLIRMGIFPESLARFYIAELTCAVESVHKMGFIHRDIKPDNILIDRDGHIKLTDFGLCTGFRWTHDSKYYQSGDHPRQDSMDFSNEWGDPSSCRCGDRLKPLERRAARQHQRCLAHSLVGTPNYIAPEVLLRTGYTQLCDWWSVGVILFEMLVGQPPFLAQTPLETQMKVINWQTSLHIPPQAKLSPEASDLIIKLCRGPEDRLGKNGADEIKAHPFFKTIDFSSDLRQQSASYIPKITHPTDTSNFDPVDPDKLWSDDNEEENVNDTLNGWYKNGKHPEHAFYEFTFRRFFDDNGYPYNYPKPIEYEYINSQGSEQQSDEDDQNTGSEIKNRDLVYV
The data set is described as follows: Activation of LATS1 in triple-negative human SUM159 cells transfected with YAP/TAZ-TEAD reporter plasmid containing 8xGTIIC binding site and cotransfected with pCMV-Luc assessed as suppression of YAP/TAZ luciferase activity measured after 12 hrs by dual luciferase reporter assay.

Data set [2] relates to SUM-159-PT. The data set is described as follows: Cytotoxicity against human SUM159 cells assessed as reduction in cell viability at 0.2 to 1.2 uM by MTT assay. Format: functional, cell-based. The settings on record: TDE = time-dependent effect.
Data set [3] relates to SUM-159-PT. The data set is described as follows: Downregulation of TAZ protein expression in human SUM159 cells at 0.25 to 1.5 uM measured after 12 to 24 hrs by immunoblotting analysis. Type of data set: functional, cell-based.
Data set [4] deals with PC-3. Nature of the data set: Effect on MOB expression in human PC3 cells at 0.25 to 1.5 uM measured after 24 hrs by Western blot analysis. Format: functional, cell-based.
The target of data set [5] is Serine/threonine-protein kinase 3/4 (Homo sapiens) (UniProt Q13043+Q13188). The data set is described as follows: Activation of MST1/2 in human SUM159 cells assessed as effect on phosphorylation at T183/T180 residues at 0.25 to 1.5 uM measured after 12 hrs by Western blot analysis. Type of data set: cell-based.
The target in data set [6] is T1, Serine/threonine-protein kinase LATS1 (Homo sapiens). The data set is described as follows: Activation of LATS1 in human PC3 cells assessed as increase in phosphorylation at Ser909 residue measured after 24 hrs by Western blot analysis. Type of data set: cell-based.
The test system of another data set is MCF7. Nature of the data set: Cytotoxicity against human MCF7 cells assessed as reduction in cell viability measured after 72 hrs by MTT assay. Type of data set: functional, cell-based. Conditions: MCF7, 72 h.
A short description of data set [7]: Acute toxicity in athymic Nude-Foxn1nu BALB/c mouse xenografted with human MDA-MB-231 cells assessed as effect on serum creatinine level at 200 mg/kg, po administered once daily via gavage for 14 days. The settings on record: in vivo, 336 h. Type of data set: organism-based.
Data set [8] can be described thus: Acute toxicity in athymic Nude-Foxn1nu BALB/c mouse xenografted with human MDA-MB-231 cells assessed as effect on serum AST level at 200 mg/kg, po administered once daily via gavage for 14 days. Type of data set: organism-based. Conditions: in vivo, 336 h.
The target of data set [9] is T1, Serine/threonine-protein kinase LATS1 (Homo sapiens). Nature of the data set: Activation of LATS1 in human PC9 cells assessed as increase in YAP phosphorylation at Ser397 at 0.25 to 1.5 uM measured after 24 to 48 hrs by immunoblotting analysis. Format: cell-based.
For another data set, the system named is PC-9. The data set is described as follows: Cytotoxicity against human PC9 cells assessed as reduction in cell viability measured after 72 hrs by MTT assay. Format: functional, cell-based.
The target in data set [10] is T1, Serine/threonine-protein kinase LATS1 (Homo sapiens). The data set is described as follows: Activation of LATS1 in human PC9 cells assessed as increase in YAP phosphorylation at Ser397 at 0.25 to 1.5 uM measured after 12 to 24 hrs by immunoblotting analysis. Format: cell-based.
Data set [11] shares this target. The data set is described as follows: Activation of LATS1 in human MDA-MB-231 cells assessed as increase in phosphorylation at Ser909 residue measured after 24 hrs by Western blot analysis. Format: cell-based.
Data set [12] has as its system PC-3. Nature of the data set: Downregulation of TAZ protein expression in human PC3 cells at 0.25 to 1.5 uM measured after 24 to 48 hrs by immunoblotting analysis. Format: functional, cell-based.
The target in data set [13] is T1, Serine/threonine-protein kinase LATS1 (Homo sapiens). The data set is described as follows: Activation of LATS1 in triple-negative human SUM159 cells assessed as effect on YAP mRNA level at 0.25 to 1 uM measured after 12 hrs by Trizol reagent based RT-PCR analysis.
Data set [14] concerns SUM-159-PT. The data set is described as follows: Effect on MST2 expression in human SUM159 cells at 0.25 to 1.5 uM measured after 12 hrs by Western blot analysis. Format: functional, cell-based.
Data set [15] concerns MDA-MB-231. Nature of the data set: Activation of MOB in human MDA-MB-231 cells assessed as phosphorylation at Thr35 residue at 0.25 to 1.25 uM measured after 24 hrs by Western blot analysis. Format: cell-based.
The subject of data set [16] is MDA-MB-231. Nature of the data set: Cytotoxicity against human MDA-MB-231 cells assessed as reduction in cell viability at 0.2 to 1.2 uM by MTT assay. Type of data set: functional, cell-based. The settings on record: TDE = time-dependent effect.
Data set [17] concerns the target T1, Serine/threonine-protein kinase LATS1 (Homo sapiens). Nature of the data set: Activation of LATS1 in human PC9 cells assessed as induction of YAP degradation by measuring suppression of YAP protein expression at 0.25 to 1.5 uM measured after 12 to 24 hrs by immunoblotting analysis. Type of data set: cell-based.
The target is the same in data set [18]. The data set is described as follows: Activation of LATS1 in human MDA-MB-231 cells assessed as increase in YAP phosphorylation at Ser397 at 0.25 to 1.5 uM measured after 24 to 48 hrs by immunoblotting analysis. Type of data set: cell-based.
In data set [19] the target is Epidermal growth factor receptor (Homo sapiens) (UniProt P00533). The data set is described as follows: Induction of EGFR degradation in human MDA-MB-231 cells assessed as suppression of EGFR expression at 0.1 to 0.8 uM by Western blot analysis. Type of data set: cell-based.

Molecules are shown by their SMILES. pIC50: −log10 of the molar value. Activity calls are given as the source filed them. The calls are words filed in the database; no cut-off is given here.

Serine/threonine-protein kinase 3/4 (Homo sapiens), sequence (Q13043 whole entry, looked up): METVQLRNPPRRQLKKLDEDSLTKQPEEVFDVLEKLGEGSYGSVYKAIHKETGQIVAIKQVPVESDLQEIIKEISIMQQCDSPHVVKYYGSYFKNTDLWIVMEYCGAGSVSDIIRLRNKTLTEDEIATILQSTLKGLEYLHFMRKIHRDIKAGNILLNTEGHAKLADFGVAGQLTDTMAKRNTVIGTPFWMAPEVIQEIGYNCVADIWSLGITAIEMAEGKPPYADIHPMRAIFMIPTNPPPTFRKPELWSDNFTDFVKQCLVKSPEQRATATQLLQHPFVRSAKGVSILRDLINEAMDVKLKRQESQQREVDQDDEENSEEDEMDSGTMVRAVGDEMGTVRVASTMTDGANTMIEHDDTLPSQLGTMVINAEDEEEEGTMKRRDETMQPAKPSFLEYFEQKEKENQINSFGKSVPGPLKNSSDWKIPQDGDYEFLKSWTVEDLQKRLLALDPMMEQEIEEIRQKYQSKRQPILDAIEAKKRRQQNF
Serine/threonine-protein kinase 3/4 (Homo sapiens), sequence (Q13188 whole entry, looked up): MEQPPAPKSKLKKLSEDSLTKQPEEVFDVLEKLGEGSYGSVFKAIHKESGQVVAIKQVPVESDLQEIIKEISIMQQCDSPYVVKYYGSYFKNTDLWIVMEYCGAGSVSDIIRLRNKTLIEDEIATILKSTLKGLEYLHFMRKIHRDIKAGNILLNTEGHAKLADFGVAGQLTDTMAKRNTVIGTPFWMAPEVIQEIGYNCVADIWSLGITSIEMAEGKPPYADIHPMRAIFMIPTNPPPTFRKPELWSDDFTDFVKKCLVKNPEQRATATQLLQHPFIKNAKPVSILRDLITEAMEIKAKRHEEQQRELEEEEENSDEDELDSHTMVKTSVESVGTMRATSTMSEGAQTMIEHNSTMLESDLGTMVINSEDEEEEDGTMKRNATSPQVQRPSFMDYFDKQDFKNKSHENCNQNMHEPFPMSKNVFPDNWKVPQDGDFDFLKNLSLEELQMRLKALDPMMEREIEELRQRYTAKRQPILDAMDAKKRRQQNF
Epidermal growth factor receptor (Homo sapiens), sequence (P00533 whole entry): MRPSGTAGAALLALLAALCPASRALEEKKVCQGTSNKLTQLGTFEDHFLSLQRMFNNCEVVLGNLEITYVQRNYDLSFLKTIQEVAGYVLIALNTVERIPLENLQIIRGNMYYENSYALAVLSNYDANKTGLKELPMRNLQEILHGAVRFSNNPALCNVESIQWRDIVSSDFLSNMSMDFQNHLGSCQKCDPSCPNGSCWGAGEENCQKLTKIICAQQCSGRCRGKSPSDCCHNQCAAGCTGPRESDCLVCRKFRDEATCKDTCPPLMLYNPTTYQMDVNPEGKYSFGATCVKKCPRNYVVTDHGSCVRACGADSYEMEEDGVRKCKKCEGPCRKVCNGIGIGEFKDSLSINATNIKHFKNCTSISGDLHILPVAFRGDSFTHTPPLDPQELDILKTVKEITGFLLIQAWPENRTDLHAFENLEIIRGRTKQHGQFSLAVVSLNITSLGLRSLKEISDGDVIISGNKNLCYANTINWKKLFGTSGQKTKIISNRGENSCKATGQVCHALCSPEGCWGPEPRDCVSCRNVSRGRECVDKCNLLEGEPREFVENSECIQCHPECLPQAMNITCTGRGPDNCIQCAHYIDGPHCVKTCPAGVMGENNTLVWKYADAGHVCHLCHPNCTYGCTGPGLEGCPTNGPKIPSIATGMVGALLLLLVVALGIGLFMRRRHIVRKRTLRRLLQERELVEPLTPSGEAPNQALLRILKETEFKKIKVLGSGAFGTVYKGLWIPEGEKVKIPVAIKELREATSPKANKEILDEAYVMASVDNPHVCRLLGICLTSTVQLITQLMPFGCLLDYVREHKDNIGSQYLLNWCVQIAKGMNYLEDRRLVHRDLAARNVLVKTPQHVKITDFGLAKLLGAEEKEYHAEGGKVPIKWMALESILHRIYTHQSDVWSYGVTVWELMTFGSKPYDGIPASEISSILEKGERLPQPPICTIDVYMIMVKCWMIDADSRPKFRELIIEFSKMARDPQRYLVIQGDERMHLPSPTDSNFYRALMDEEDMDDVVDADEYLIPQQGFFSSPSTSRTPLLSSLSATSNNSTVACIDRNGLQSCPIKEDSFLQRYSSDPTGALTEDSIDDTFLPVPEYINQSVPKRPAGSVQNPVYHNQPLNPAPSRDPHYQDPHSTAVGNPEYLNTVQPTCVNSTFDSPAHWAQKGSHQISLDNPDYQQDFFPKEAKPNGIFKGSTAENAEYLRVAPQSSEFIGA

Turning to `CC(=O)Nc1ccc(NC(=O)Nc2cccc(-c3nc(-c4ccc(NC(=O)c5cccnc5)cc4Cl)no3)c2)cc1C(F)(F)F`, the Activity entry in [1] was “Dose-dependent effect”; with SUM-159-PT [2], “Tde”; in data set [6], “Dose-dependent effect”; in [7] it was “Non-Toxic”; in data set [8], “Non-Toxic”; with PC-9, “Dose-dependent effect”. For the same compound, the values for the Activity result (in [11]; with MDA-MB-231 [16]) were “Dose-dependent effect” and “Tde”, respectively. Moreover, the inhibition result with SUM-159-PT [3] is “Active”. Moreover, the outcome (with PC-3 [4]; in data set [5]; in data set [9]; in [13]; with SUM-159-PT [14]; in [18]) was inactive. Also, in data set [19], the result was inactive. In addition, the pIC50 is less than 5.92 in the data set with MCF7 and 6.10 to 6.40 with PC-9 (PC-9, 72 h). Also, the outcome (in data set [10]; with MDA-MB-231 [15]; in data set [17]) was Active. Also, the inhibition result in the data set on PC-3 [12] is “inactive”.
